Experimental findings from patent US8133913B2, “Substituted indeno [1,2-b]indole derivatives as novel inhibitors of protein kinase CK2 and their use as tumor therapeutic agents, cytostatics and diagnostic aids” (Heinrich-Heine Universitat Dusseldof, priority 2006, dated 2012) are described below.

pIC50: −log10 of the molar value. Read-outs that look alike come from different tables or passages of the source.

One assay deals with 5637. As to the kind of experiment: Proliferation of tumor cell lines (Bracht et al.). The conditions noted are these: for activity at 20 µM: 5637, tested at 20 μM, read-out: T/C (%) Mean. It is filed as cell-based.
A further assay deals with T1, Aurora-B (Homo sapiens, UniProt Q96GD4).
T1 construct: made in house; host or cells: Sf9 insect cells, baculovirus
T1 sequence (Q96GD4 whole entry): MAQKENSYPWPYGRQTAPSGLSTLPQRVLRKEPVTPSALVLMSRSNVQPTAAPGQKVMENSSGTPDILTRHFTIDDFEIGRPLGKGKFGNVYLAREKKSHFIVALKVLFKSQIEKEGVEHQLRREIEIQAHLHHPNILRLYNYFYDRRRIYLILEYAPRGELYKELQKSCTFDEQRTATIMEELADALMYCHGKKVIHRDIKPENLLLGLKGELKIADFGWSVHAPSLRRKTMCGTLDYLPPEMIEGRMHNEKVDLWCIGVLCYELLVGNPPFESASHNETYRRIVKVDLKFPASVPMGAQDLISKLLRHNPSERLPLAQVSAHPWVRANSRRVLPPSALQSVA
As to the kind of experiment: Radiometric protein kinase assay (33PanQinase Activity Assay). Type of assay: biochemical. The conditions noted are these: for IC50: 1 μM ATP, read-out: IC50 values [μM] Aurora-B. An excerpt: (§1) AKTI1, ARK5, Aurora-A, Aurora-B, B-RAF-VE, CDK2/CycA, CDK4/CycD1, CK2-alpha1 (catalytic subunit of CK2), EGF-R, EPHB4, ERBB2, FAK, IGF1-R, SRC, VEGF-R2, VEGF-R3, FLT3, INS-R, MET, PDGFR-beta, PLK1, SAK, TIE2, COT.
(§2) All the protein kinases were expressed in Sf9 insect cells as human recombinant GST fusion proteins or His-tagged proteins by the baculovirus expression system. Kinases were purified by affinity chromatography either by GSH-agarose (Sigma) or Ni—NTH-agarose (Qiagen). The purity of the kinases was tested by SDS-PAGE/silver staining, and the identity of the kinases was verified by Western blot analysis with specific antibodies or mass spectroscopy.
(§3) A radiometric protein kinase assay (33PanQinase® Activity Assay) was used to measure the kinase activity for the 24 protein kinases. The kinase assays were carried out in 96-well FlashPlates™ from Perkin Elmer/NEN (Boston, Mass., USA) in a reaction volume of 50 μl. The reaction mixture was pipetted in 4 steps in the following sequence: • 20 μl of assay buffer • 5 μl of ATP solution (in H2O) • 5 μl of test compound (in 10% DMSO) • 10 μl of substrate/10 μl of enzyme solution (premixed)
(§4) The assays for all the enzymes contained 60 mM HEPES-NaOH, pH 7.5, 3 mM MgCl2, 3 mM MnCl2, 3 μM Na orthovanadate, 1.2 mM DTT, 50 μg/ml PEG20000, 1 μM [γ-^33P]-ATP (about 5×10^5 cpm per well).
(§5) The reaction mixture was incubated at 30° C. for 80 minutes. The reaction was stopped with 50 μl of 2% (v/v) H3PO4. The plates were aspirated and washed twice with 200 μl of 0.9% (w/v) NaCl. The incorporation of ^33Pi was determined using a microtiter plates scintillation counter (Microbeta Trilux, Wallac).

In another assay the target is T2, CDK2/CycA (Homo sapiens, UniProt P24941).
T2 construct: made in house; host or cells: Sf9 insect cells, baculovirus
Described as above. Type of assay: biochemical. The conditions noted are these: for IC50: 1 μM ATP, read-out: IC50 values [μM] CDK2/CycA.
Description: as §1, §2, §3, §4, §5

The target of another assay is T3, CDK4/CycD1 (Homo sapiens, UniProt P11802).
T3 construct: made in house; host or cells: Sf9 insect cells, baculovirus
T3 sequence (P11802 whole entry): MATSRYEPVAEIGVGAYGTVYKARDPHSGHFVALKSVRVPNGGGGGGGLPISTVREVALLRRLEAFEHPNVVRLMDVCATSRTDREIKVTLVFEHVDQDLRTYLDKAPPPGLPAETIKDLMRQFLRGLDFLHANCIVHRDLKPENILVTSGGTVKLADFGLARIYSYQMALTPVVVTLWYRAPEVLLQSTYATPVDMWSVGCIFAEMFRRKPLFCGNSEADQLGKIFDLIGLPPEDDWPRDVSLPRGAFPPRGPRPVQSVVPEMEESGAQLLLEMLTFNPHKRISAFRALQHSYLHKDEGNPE
T3 sequence (P24385 whole entry partner): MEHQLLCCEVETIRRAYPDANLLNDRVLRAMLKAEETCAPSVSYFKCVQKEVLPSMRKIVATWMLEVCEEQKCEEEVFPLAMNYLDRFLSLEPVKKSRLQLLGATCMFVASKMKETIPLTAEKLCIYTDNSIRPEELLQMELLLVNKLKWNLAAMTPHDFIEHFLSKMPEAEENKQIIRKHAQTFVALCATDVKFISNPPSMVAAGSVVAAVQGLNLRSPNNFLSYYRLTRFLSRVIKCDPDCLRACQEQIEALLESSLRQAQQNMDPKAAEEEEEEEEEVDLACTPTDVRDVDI
Described as above. Type of assay: biochemical. The conditions noted are these: for IC50: 1 μM ATP, read-out: IC50 values [μM] CDK4/CycD1.
Description: as §1, §2, §3, §4, §5

The next assay has as its target T4, IGF1-R (Homo sapiens, UniProt P08069).
T4 construct: made in house; host or cells: Sf9 insect cells, baculovirus
The assay is described as above. Type of assay: biochemical. The conditions noted are these: for IC50: 1 μM ATP, read-out: IC50 values [μM] IGF1-R.
Description: as §1, §2, §3, §4, §5

The next assay deals with T5, FLT3 (Homo sapiens, UniProt P36888).
T5 construct: made in house; host or cells: Sf9 insect cells, baculovirus
T5 sequence (P36888 27-993): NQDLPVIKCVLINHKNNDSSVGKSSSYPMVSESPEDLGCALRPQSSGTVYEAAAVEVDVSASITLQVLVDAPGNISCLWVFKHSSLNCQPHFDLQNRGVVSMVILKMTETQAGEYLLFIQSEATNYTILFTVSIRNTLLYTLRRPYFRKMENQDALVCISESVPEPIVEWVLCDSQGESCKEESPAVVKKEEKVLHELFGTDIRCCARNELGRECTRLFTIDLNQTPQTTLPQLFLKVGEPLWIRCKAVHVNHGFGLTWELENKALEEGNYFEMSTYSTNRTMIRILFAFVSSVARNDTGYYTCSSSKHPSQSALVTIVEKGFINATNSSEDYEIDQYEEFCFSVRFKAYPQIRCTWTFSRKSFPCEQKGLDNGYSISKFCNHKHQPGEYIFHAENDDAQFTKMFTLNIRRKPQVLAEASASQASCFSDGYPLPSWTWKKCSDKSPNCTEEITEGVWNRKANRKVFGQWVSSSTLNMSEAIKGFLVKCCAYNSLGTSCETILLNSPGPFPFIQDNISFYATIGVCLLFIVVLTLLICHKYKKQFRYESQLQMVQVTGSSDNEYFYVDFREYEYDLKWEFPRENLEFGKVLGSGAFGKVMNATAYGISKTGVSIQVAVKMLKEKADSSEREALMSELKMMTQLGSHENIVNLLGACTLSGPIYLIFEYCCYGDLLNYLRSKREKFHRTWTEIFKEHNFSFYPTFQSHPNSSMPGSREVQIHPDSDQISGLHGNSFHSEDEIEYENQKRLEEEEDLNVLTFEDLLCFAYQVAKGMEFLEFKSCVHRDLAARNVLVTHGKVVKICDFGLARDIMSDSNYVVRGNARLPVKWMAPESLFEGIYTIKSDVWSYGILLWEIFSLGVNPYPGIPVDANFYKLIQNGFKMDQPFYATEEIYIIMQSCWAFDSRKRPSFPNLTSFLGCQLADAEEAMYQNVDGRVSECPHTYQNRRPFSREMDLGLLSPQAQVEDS
Described as above. It is filed as biochemical. The conditions noted are these: for IC50: 1 μM ATP, read-out: IC50 values [μM] FLT3.
Description: as §1, §2, §3, §4, §5

For the next assay, the target named is T6, TIE2 (Homo sapiens, UniProt Q02763).
T6 construct: made in house; host or cells: Sf9 insect cells, baculovirus
T6 sequence (Q02763 23-1124): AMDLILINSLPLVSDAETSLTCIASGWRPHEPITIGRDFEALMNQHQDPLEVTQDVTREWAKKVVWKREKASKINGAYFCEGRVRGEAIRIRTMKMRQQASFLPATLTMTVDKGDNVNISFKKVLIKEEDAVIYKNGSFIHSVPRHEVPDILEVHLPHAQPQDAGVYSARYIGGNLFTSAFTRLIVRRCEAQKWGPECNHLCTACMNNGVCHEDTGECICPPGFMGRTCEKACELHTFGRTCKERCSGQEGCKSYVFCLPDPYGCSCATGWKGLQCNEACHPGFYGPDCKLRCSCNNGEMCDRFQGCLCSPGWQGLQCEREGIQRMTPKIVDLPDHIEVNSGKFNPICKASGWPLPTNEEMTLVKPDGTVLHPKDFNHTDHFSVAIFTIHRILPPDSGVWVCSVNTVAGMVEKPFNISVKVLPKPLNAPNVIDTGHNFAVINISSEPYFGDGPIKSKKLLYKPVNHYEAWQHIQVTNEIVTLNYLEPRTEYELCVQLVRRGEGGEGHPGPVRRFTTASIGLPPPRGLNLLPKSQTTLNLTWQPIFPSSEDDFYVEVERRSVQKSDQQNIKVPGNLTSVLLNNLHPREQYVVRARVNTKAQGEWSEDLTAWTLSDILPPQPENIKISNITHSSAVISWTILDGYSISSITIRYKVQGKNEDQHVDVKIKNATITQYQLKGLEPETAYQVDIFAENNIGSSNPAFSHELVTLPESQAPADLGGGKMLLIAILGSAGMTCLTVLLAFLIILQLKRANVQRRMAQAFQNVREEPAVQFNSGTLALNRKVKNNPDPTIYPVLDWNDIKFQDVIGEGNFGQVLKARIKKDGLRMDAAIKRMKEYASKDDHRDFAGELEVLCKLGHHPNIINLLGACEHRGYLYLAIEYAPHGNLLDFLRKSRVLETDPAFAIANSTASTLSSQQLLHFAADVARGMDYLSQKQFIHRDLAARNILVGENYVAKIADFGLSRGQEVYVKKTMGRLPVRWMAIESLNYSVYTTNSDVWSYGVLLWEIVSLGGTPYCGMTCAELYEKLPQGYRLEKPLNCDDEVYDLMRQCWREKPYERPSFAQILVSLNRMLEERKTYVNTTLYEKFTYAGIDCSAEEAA
Described as above. Type of assay: biochemical. The conditions noted are these: for IC50: 1 μM ATP, read-out: IC50 values [μM] TIE2.
Description: as §1, §2, §3, §4, §5

The next assay has as its system KYSE-70. As to the kind of experiment: Proliferation of tumor cell lines (Bracht et al.). Type of assay: cell-based. The conditions noted are these: Homo sapiens; for activity at 20 µM: KYSE-70, tested at 20 μM, read-out: T/C (%) Mean.
The subject of another assay is SISO. As to the kind of experiment: Proliferation of tumor cell lines (Bracht et al.). It is filed as cell-based. The conditions noted are these: for activity at 20 µM: tested at 20 μM, read-out: T/C (%) Mean.

T4 sequence (P08069 31-1367): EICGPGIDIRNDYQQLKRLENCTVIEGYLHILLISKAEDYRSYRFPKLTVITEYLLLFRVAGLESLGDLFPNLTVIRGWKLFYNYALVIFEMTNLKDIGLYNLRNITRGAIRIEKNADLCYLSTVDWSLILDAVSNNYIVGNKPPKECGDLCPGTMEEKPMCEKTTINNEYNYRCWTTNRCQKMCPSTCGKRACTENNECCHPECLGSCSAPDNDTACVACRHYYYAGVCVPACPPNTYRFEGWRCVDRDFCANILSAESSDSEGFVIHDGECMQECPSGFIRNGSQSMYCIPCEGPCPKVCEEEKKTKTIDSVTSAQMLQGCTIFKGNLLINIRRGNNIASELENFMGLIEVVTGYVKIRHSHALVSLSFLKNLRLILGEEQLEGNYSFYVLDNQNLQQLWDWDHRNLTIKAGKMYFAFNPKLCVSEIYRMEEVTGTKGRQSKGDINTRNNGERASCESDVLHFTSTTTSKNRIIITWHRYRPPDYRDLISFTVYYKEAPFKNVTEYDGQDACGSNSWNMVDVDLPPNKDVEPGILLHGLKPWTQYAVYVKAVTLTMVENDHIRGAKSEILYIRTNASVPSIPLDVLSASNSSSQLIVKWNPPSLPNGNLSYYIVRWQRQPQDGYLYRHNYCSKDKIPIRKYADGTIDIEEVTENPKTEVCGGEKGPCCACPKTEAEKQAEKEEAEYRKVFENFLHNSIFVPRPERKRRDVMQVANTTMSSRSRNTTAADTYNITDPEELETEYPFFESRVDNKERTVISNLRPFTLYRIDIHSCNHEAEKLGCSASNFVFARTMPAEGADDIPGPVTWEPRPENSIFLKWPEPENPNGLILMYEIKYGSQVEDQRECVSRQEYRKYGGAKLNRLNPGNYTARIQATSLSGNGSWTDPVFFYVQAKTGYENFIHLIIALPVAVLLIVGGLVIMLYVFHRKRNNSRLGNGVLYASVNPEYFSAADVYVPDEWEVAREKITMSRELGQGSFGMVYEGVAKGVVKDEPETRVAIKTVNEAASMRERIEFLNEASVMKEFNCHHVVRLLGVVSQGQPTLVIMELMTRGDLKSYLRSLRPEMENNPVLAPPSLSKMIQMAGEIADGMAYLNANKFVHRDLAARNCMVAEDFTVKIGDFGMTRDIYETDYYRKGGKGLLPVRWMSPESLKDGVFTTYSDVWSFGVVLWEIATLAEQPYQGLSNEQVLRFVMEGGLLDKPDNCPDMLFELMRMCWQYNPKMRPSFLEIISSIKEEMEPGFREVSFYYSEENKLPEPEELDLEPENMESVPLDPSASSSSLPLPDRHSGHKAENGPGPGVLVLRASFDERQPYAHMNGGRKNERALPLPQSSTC

Take `O=c1ccc(=O)c2c1c1c(=O)c3ccccc3c1n2Cc1ccccc1` [Compound 6c, 5-Benzyl 5,6,9,10-tetrahydroindeno[1,2-b]indole-6,9,10-trione]: the activity at 20 µM with 5637 came to 0.44%; in the assay on KYSE-70, 12.1%; in the assay with SISO, 5.3%. Moreover, the IC50 with 5637 (5637, read-out: IC50 (μM) Mean, inhibition of cell proliferation) is 2.75 µM; at Aurora-B, > 10 µM; on CDK2/CycA, > 10 µM; on CDK4/CycD1, 7.6 µM; at IGF1-R it was 2.5 µM; on FLT3, 9.2 µM. The IC50 at TIE2 turned out to be 4.7 µM; in the assay on KYSE-70 (KYSE-70, read-out: IC50 (μM) Mean, inhibition of cell proliferation), 2.83 µM; in the assay with SISO (read-out: IC50 (μM) Mean, inhibition of cell proliferation), 2.82 µM.
As usually defined, the pIC50 is −log10 of the IC50, conventionally taken in molar units. For the molecule `CC(C)n1c2c(c3c1-c1ccccc1C3=O)C(=O)CCC2` [Compound 4b, 5-Isopropyl-5,6,7,8-tetrahydroindeno[1,2-b]indole-9,10-dione], the activity at 20 µM in the assay on 5637 came out at 99%; with KYSE-70, 74.9%; in the assay on SISO, 100%. Further, the pIC50 at Aurora-B, at CDK2/CycA, against CDK4/CycD1, against IGF1-R, against FLT3 and on TIE2 was < 5.00 throughout.
Consider `CC(C)n1c2c(=O)ccc(=O)c2c2c(=O)c3ccccc3c21` [Compound 6b, 5-Isopropyl-5H-indeno[1,2-b]indole-6,9,10-trione], for which the activity at 20 µM in the assay on 5637 was -1.73%; in the assay with KYSE-70, 1.26%; in the assay with SISO, 0.28%. Moreover, the IC50 on Aurora-B was 5.4 µM; at CDK2/CycA it was > 10 µM; on CDK4/CycD1 it was > 10 µM; on IGF1-R it was 2.9 µM; at FLT3 it was 0.051 µM; on TIE2 it was 3.2 µM.
